Data taken from ChEMBL document CHEMBL2057065, “The 3-Deoxy Analogue of α-GalCer: Disclosing the Role of the 4-Hydroxyl Group for CD1d-Mediated NKT Cell Activation” (ACS Med Chem Lett, 2011).
Active and inactive are the calls of the source.

What was measured:
[1] = organism: Mus musculus; assay: Immunostimulatory activity in mouse DN32.D3 NKT hybridoma cells assessed as IL-2 production after 16 hrs by ELISA; assay type: functional
[2] = tested on: Splenocyte; assay: Immunostimulatory activity in mouse splenocytes assessed as IFNgamma production at 8 ng/ml after 72 hrs by ELISA; assay type: functional, cell-based
[3] = tested on: Splenocyte; assay: Immunostimulatory activity in mouse splenocytes assessed as IL4 production at 8 ng/ml after 72 hrs by ELISA; assay type: functional, cell-based

Measured: Activity

CCCCCCCCCCCCCCCCCCCCCCCCCC(=O)N[C@@H](CO[C@H]1O[C@H](CO)[C@H](O)[C@H](O)[C@H]1O)[C@H](O)[C@H](O)CCCCCCCCCCCCCC
active: all assays above

CCCCCCCCCCCCCCCCCCCCCCCCCC(=O)N[C@@H](CO[C@H]1O[C@H](CO)[C@H](O)[C@H](O)[C@H]1O)[C@H](O)CCCCCCCCCCCCCCC
active: all assays above

CCCCCCCCCCCCCCCCCCCCCCCCCC(=O)N[C@@H](CO[C@H]1O[C@H](CO)[C@H](O)[C@H](O)[C@H]1O)C[C@H](O)CCCCCCCCCCCCCC
active: all assays above
